The text below walks through data of publication PMC5435455 (ACS Chemical Biology, 2017).

Read-outs that look alike come from different tables or passages of the source.

Assay [1] has as its target T1, Pisum sativum agglutinin (PSA, pea lectin) (Lathyrus oleraceus, UniProt P02867).
T1 sequence (P02867 31-217): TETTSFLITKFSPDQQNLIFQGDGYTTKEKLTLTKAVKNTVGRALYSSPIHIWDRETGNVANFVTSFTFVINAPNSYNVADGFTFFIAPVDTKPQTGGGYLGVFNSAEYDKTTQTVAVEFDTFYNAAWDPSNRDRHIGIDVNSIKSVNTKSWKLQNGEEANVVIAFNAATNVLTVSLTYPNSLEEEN
T1 sequence (P02867 218-275): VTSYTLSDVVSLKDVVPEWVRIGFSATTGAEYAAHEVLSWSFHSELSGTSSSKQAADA
The experiment in a line: ITC at […] K. It counts as binding.

The target of assay [2] is T1, Pisum sativum agglutinin (PSA, pea lectin). Kind of assay: ITC at […] K. It counts as binding. This is another data set of the same source.

One may read the Kd as the concentration at which binding is half-saturated. As for `CO[C@H]1O[C@H](CO)[C@@H](O)[C@H](O)[C@@H]1O` [compound 1, methyl α-D-mannopyranoside], in assay [1], binding was characterised by a dissociation constant (Kd) of 806 ± 32 µM. `OC[C@H]1O[C@H](OC[C@H]2O[C@H](O)[C@@H](O)[C@@H](O[C@H]3O[C@H](CO)[C@@H](O)[C@H](O)[C@@H]3O)[C@@H]2O)[C@@H](O)[C@@H](O)[C@@H]1O` [compound 2, 3,6-di-O-(α-D-mannopyranosyl)-α-D-mannopyranose]: binding in assay [2] was put at a Kd of 621 ± 11 µM.
